Measured values reported in patent US20080280920A1, “Plasminogen Activator Inhibitor-1 Inhibitors” (priority 2005, published 2008).

Experiments:
SR = assay: NCI anticancer screen, SR; format: cell-based, human; details: Homo sapiens, Leukemia, 48 h
K-562 = assay: NCI anticancer screen, K-562; format: cell-based, human; details: Homo sapiens, K562; K-562, Leukemia, 48 h
NCI-H322M = assay: NCI anticancer screen, NCI-H322M; format: cell-based, human; details: Homo sapiens, Non-Small Cell Lung, 48 h
DU-145 = assay: NCI anticancer screen, DU-145; format: cell-based, human; details: Homo sapiens; DU-145, Prostate, 48 h
U251 = assay: NCI anticancer screen, U251; format: cell-based, human; details: Homo sapiens, U-251; U251, CNS, 48 h
NCI/ADR-RES = assay: NCI anticancer screen, NCI/ADR-RES; format: cell-based, human; details: Homo sapiens, Breast, 48 h
A549/ATCC = assay: NCI anticancer screen, A549/ATCC; format: cell-based, human; details: Homo sapiens, Non-Small Cell Lung, 48 h
NCI-H522 = assay: NCI anticancer screen, NCI-H522; format: cell-based, human; details: Homo sapiens; NCI-H522, Non-Small Cell Lung, 48 h
CAKI-1 = assay: NCI anticancer screen, CAKI-1; format: cell-based, human; details: Homo sapiens; CAKI-1, Renal, 48 h
NCI-H23 = assay: NCI anticancer screen, NCI-H23; format: cell-based, human; details: Homo sapiens; NCI-H23, Non-Small Cell Lung, 48 h
SK-OV-3 = assay: NCI anticancer screen, SK-OV-3; format: cell-based, human; details: Homo sapiens; SK-OV-3, Ovarian, 48 h
T-47D = assay: NCI anticancer screen, T-47D; format: cell-based, human; details: Homo sapiens, T47D, Breast, 48 h
SK-MEL-5 = assay: NCI anticancer screen, SK-MEL-5; format: cell-based, human; details: Homo sapiens; SK-MEL-5, Melanoma, 48 h
MDA-MB-435 = assay: NCI anticancer screen, MDA-MB-435; format: cell-based, human; details: Homo sapiens; MDA-MB-435, Breast, 48 h
HT29 = assay: NCI anticancer screen, HT29; format: cell-based, human; details: Homo sapiens, HT-29; HT29, Colon, 48 h
SN12C = assay: NCI anticancer screen, SN12C; format: cell-based, human; details: Homo sapiens, 48 h, Renal
UACC-257 = assay: NCI anticancer screen, UACC-257; format: cell-based, human; details: Homo sapiens; UACC-257, Melanoma, 48 h
HCT-116 = assay: NCI anticancer screen, HCT-116; format: cell-based, human; details: Homo sapiens; HCT-116, Colon, 48 h
COLO 205 = assay: NCI anticancer screen, COLO 205; format: cell-based, human; details: Homo sapiens; COLO 205, Colon, 48 h
IGR-OV1 = assay: NCI anticancer screen, IGR-OV1; format: cell-based, human; details: Homo sapiens, IGROV-1; IGR-OV1, Ovarian, 48 h
M14 = assay: NCI anticancer screen, M14; format: cell-based, human; details: Homo sapiens; M14, Melanoma, 48 h
BT-549 = assay: NCI anticancer screen, BT-549; format: cell-based, human; details: Homo sapiens; BT-549, Breast, 48 h
HCT-15 = assay: NCI anticancer screen, HCT-15; format: cell-based, human; details: Homo sapiens; HCT-15, Colon, 48 h
OVCAR-8 = assay: NCI anticancer screen, OVCAR-8; format: cell-based, human; details: Homo sapiens; OVCAR-8, Ovarian, 48 h
[1] = system: 60 different human cancer cell lines; assay: NCI in vitro anticancer screen (whole panel); format: cell-based; details: NCI screen, 48 h
SF-539 = assay: NCI anticancer screen, SF-539; format: cell-based, human; details: Homo sapiens; SF-539, CNS, 48 h
UACC-62 = assay: NCI anticancer screen, UACC-62; format: cell-based, human; details: Homo sapiens; UACC-62, Melanoma, 48 h
SK-MEL-2 = assay: NCI anticancer screen, SK-MEL-2; format: cell-based, human; details: Homo sapiens; SK-MEL-2, Melanoma, 48 h
MALME-3M = assay: NCI anticancer screen, MALME-3M; format: cell-based, human; details: Homo sapiens, Melanoma, 48 h
KM12 = assay: NCI anticancer screen, KM12; format: cell-based, human; details: Homo sapiens; KM12, Colon, 48 h
MDA-MB-231/ATCC = assay: NCI anticancer screen, MDA-MB-231/ATCC; format: cell-based, human; details: Homo sapiens, Breast, 48 h
SF-295 = assay: NCI anticancer screen, SF-295; format: cell-based, human; details: Homo sapiens; SF-295, CNS, 48 h
MCF7 = assay: NCI anticancer screen, MCF7; format: cell-based, human; details: Homo sapiens; MCF7, Breast, 48 h
HS 578T = assay: NCI anticancer screen, HS 578T; format: cell-based, human; details: Homo sapiens, Breast, 48 h

Question: What does the source list for `CCOC(=O)[C@H](Cc1ccccc1)NCc1cc(CN2CCN(c3ccccn3)CC2)c(O)c(OC)c1` [Compound Q012147T]?
Answer: GI50 (SR): 0.32 µM; GI50 (K-562): 49.3 µM; GI50 (NCI-H322M): 49.4 µM; GI50 (DU-145): > 100 µM; GI50 (U251): 61.9 µM; GI50 (NCI/ADR-RES): > 100 µM; GI50 (A549/ATCC): > 100 µM; GI50 (NCI-H522): 76.3 µM; GI50 (CAKI-1): > 100 µM; GI50 (NCI-H23): 55.9 µM; GI50 (SK-OV-3): > 100 µM; GI50 (T-47D): 33.5 µM; GI50 (SK-MEL-5): 18.7 µM; GI50 (MDA-MB-435): 83.2 µM; GI50 (HT29): 43.2 µM; GI50 (SN12C): > 100 µM; GI50 (UACC-257): 67.3 µM; GI50 (HCT-116): 34.4 µM; GI50 (COLO 205): > 100 µM; GI50 (IGR-OV1): > 100 µM; GI50 (M14): 99 µM; GI50 (BT-549): 67.5 µM; GI50 (HCT-15): 98.3 µM; GI50 (OVCAR-8): > 100 µM; growth and proliferation of human primary cancer cell-lines (in words) [1]: inhibited growth and proliferation; GI50 (SF-539): 73.4 µM; GI50 (UACC-62): > 100 µM; GI50 (SK-MEL-2): > 100 µM; GI50 (MALME-3M): 99.9 µM; GI50 (KM12): > 100 µM; GI50 (MDA-MB-231/ATCC): > 100 µM; GI50 (SF-295): > 100 µM; GI50 (MCF7): 88.8 µM; GI50 (HS 578T): 48.3 µM

Question: With `COc1cc(CNc2ccc(C(=O)OC(C)(C)C)cc2)cc(CN2CCN(c3ccccn3)CC2)c1O` [Compound Q012145T] as the compound, how does the GI50 (SR) read?
Answer: 8.3 µM

Question: And the GI50 (K-562)?
Answer: 10.2 µM

Question: And the GI50 (NCI-H322M)?
Answer: > 100 µM

Question: What about the GI50 (DU-145) of the same compound?
Answer: > 100 µM

Question: What about the GI50 (U251) of the same compound?
Answer: 75.9 µM

Question: And the GI50 (NCI/ADR-RES)?
Answer: 41.1 µM

Question: And the GI50 (A549/ATCC)?
Answer: 84.3 µM

Question: And the GI50 (NCI-H522)?
Answer: 52.9 µM

Question: What about the GI50 (CAKI-1) of the same compound?
Answer: > 100 µM

Question: What about the GI50 (NCI-H23) of the same compound?
Answer: 51.6 µM

Question: What about the GI50 (SK-OV-3) of the same compound?
Answer: > 100 µM

Question: What about the GI50 (T-47D) of the same compound?
Answer: 13.1 µM

Question: What about the GI50 (SK-MEL-5) of the same compound?
Answer: 10.7 µM

Question: And the GI50 (MDA-MB-435)?
Answer: 60.1 µM

Question: And the GI50 (HT29)?
Answer: 12.7 µM

Question: And the GI50 (SN12C)?
Answer: > 100 µM

Question: And the GI50 (UACC-257)?
Answer: 33 µM

Question: What about the GI50 (HCT-116) of the same compound?
Answer: 15.2 µM

Question: What about the GI50 (COLO 205) of the same compound?
Answer: 24.8 µM

Question: And the GI50 (IGR-OV1)?
Answer: > 100 µM

Question: And the GI50 (M14)?
Answer: 83.3 µM

Question: And the GI50 (BT-549)?
Answer: 52.9 µM

Question: And the GI50 (HCT-15)?
Answer: 46.4 µM

Question: And the GI50 (OVCAR-8)?
Answer: > 100 µM

Question: What about the “growth and proliferation of human primary cancer cell-lines (in words)” value [1] of the same compound?
Answer: inhibited growth and proliferation

Question: What about the GI50 (SF-539) of the same compound?
Answer: > 100 µM

Question: What about the GI50 (UACC-62) of the same compound?
Answer: 74.5 µM

Question: What about the GI50 (SK-MEL-2) of the same compound?
Answer: > 100 µM

Question: And the GI50 (MALME-3M)?
Answer: 34.6 µM

Question: What about the GI50 (KM12) of the same compound?
Answer: 80.1 µM

Question: And the GI50 (MDA-MB-231/ATCC)?
Answer: > 100 µM

Question: What about the GI50 (SF-295) of the same compound?
Answer: 69.9 µM

Question: And the GI50 (MCF7)?
Answer: 21 µM

Question: What about the GI50 (HS 578T) of the same compound?
Answer: > 100 µM

Question: What does the source list for `CC(C)(C)OC(=O)Nc1ccc(O)c(C(=O)NCCOC(=O)NCCNC(=O)c2cc(OCc3ccccc3)ccc2OCc2ccccc2)c1` [Compound Q012052, 2-[5-(BOC-amino)-2-hydroxybenzoylamino]ethyl 2-[2,5-bis-(benzyl-oxy)benzoylamino]ethylcarbamate]?
Answer: GI50 (SR): 89.8 µM; GI50 (K-562): 14 µM; GI50 (NCI-H322M): > 100 µM; GI50 (DU-145): > 100 µM; GI50 (U251): > 100 µM; GI50 (NCI/ADR-RES): > 100 µM; GI50 (A549/ATCC): 68.8 µM; GI50 (NCI-H522): 49.7 µM; GI50 (CAKI-1): 98 µM; GI50 (NCI-H23): > 100 µM; GI50 (SK-OV-3): > 100 µM; GI50 (T-47D): 5.05 µM; GI50 (SK-MEL-5): > 100 µM; GI50 (MDA-MB-435): > 100 µM; GI50 (HT29): > 100 µM; GI50 (SN12C): > 100 µM; GI50 (UACC-257): 15.6 µM; GI50 (HCT-116): > 100 µM; GI50 (COLO 205): 8.97 µM; GI50 (IGR-OV1): 25.3 µM; GI50 (M14): > 100 µM; GI50 (BT-549): 80.1 µM; GI50 (HCT-15): > 100 µM; GI50 (OVCAR-8): > 100 µM; growth and proliferation of human primary cancer cell-lines (in words) [1]: inhibited growth and proliferation; GI50 (SF-539): > 100 µM; GI50 (UACC-62): > 100 µM; GI50 (SK-MEL-2): > 100 µM; GI50 (MALME-3M): > 100 µM; GI50 (KM12): > 100 µM; GI50 (MDA-MB-231/ATCC): > 100 µM; GI50 (SF-295): 21.9 µM; GI50 (MCF7): 17.1 µM; GI50 (HS 578T): > 100 µM
